Experimental data: patent US7125662B2, “Method of identifying putative antibiotic resistance genes” (priority 2000, dated 2006)

System: not given
Test: not given
Details: Table 1, β-lactams; unit assumed; cited from earlier work

Row | SMILES | Clin. = the MIC for clinical resistance [µg/mL]
1 | CC(C)(O/N=C(\C(=O)N[C@@H]1C(=O)N2C(C(=O)[O-])=C(C[n+]3ccccc3)CS[C@H]12)c1csc(N)n1)C(=O)O [Ceftazidime] | 32
2 | CC1(C)S[C@@H]2[C@H](NC(=O)[C@H](N)c3ccccc3)C(=O)N2[C@H]1C(=O)O [Ampicillin] | 32
3 | CO/N=C(\C(=O)N[C@@H]1C(=O)N2C(C(=O)O)=C(COC(C)=O)CS[C@H]12)c1csc(N)n1 [Cefotaxime] | 64

System: host expressing Citrobacter freundii ampC gene CMY2
Test: MIC conferred by ampC gene CMY2 cloned into common vector
Assay type: cell-based
Details: not given
Excerpt: (§1) The plasmid-borne ampC genes shown in Table 1 (below) have been cloned into a common vector to ensure that all genes are expressed at the same level. […] That is completely expected because those genes were isolated from clinical samples and identified on the basis of conferring resistance to clinical drugs. ampC genes from two strains of Citrobacter freundii that were isolated in the 1920's, in the pre-antibiotic era, were also cloned into the same vector.

Row | SMILES | Minimum Inhibitory Concentration (MIC)
4 | CC(C)(O/N=C(\C(=O)N[C@@H]1C(=O)N2C(C(=O)[O-])=C(C[n+]3ccccc3)CS[C@H]12)c1csc(N)n1)C(=O)O [Ceftazidime] | 128
5 | CC1(C)S[C@@H]2[C@H](NC(=O)[C@H](N)c3ccccc3)C(=O)N2[C@H]1C(=O)O [Ampicillin] | 1024
6 | CO/N=C(\C(=O)N[C@@H]1C(=O)N2C(C(=O)O)=C(COC(C)=O)CS[C@H]12)c1csc(N)n1 [Cefotaxime] | 64

System: host expressing Citrobacter freundii ampC gene Cfre8454
Test: MIC conferred by ampC gene Cfre8454 cloned into common vector
Assay type: cell-based
Details: Cfre 8454, gene from organism isolated in the 1920's
Excerpt: as §1

Row | SMILES | Minimum Inhibitory Concentration (MIC)
7 | CC(C)(O/N=C(\C(=O)N[C@@H]1C(=O)N2C(C(=O)[O-])=C(C[n+]3ccccc3)CS[C@H]12)c1csc(N)n1)C(=O)O [Ceftazidime] | 8
8 | CC1(C)S[C@@H]2[C@H](NC(=O)[C@H](N)c3ccccc3)C(=O)N2[C@H]1C(=O)O [Ampicillin] | 2048
9 | CO/N=C(\C(=O)N[C@@H]1C(=O)N2C(C(=O)O)=C(COC(C)=O)CS[C@H]12)c1csc(N)n1 [Cefotaxime] | 128

Same assay, conditions: Cfre8454, without any additional mutations

Row | SMILES | resistance conferred
10 | CC(C)(O/N=C(\C(=O)N[C@@H]1C(=O)N2C(C(=O)[O-])=C(C[n+]3ccccc3)CS[C@H]12)c1csc(N)n1)C(=O)O [Ceftazidime] | does not confer clinical resistance

System: evolved E. coli ampC gene
Test: not given
Details: two or three laboratory-induced mutations; cited from earlier work

Row | SMILES | resistance conferred after further evolution
11 | CC(C)(O/N=C(\C(=O)N[C@@H]1C(=O)N2C(C(=O)[O-])=C(C[n+]3ccccc3)CS[C@H]12)c1csc(N)n1)C(=O)O [Ceftazidime] | confer resistance

System: host expressing Citrobacter freundii ampC gene LAT3
Test: MIC conferred by ampC gene LAT3 cloned into common vector
Assay type: cell-based
Details: not given
Excerpt: as §1

Row | SMILES | Minimum Inhibitory Concentration (MIC)
12 | CC(C)(O/N=C(\C(=O)N[C@@H]1C(=O)N2C(C(=O)[O-])=C(C[n+]3ccccc3)CS[C@H]12)c1csc(N)n1)C(=O)O [Ceftazidime] | 256
13 | CC1(C)S[C@@H]2[C@H](NC(=O)[C@H](N)c3ccccc3)C(=O)N2[C@H]1C(=O)O [Ampicillin] | 1024
14 | CO/N=C(\C(=O)N[C@@H]1C(=O)N2C(C(=O)O)=C(COC(C)=O)CS[C@H]12)c1csc(N)n1 [Cefotaxime] | 128

System: host expressing Citrobacter freundii ampC gene CMY3b
Test: MIC conferred by ampC gene CMY3b cloned into common vector
Assay type: cell-based
Details: not given
Excerpt: as §1

Row | SMILES | Minimum Inhibitory Concentration (MIC)
15 | CC(C)(O/N=C(\C(=O)N[C@@H]1C(=O)N2C(C(=O)[O-])=C(C[n+]3ccccc3)CS[C@H]12)c1csc(N)n1)C(=O)O [Ceftazidime] | 256
16 | CC1(C)S[C@@H]2[C@H](NC(=O)[C@H](N)c3ccccc3)C(=O)N2[C@H]1C(=O)O [Ampicillin] | 1024
17 | CO/N=C(\C(=O)N[C@@H]1C(=O)N2C(C(=O)O)=C(COC(C)=O)CS[C@H]12)c1csc(N)n1 [Cefotaxime] | 64

System: host expressing Citrobacter freundii ampC gene LAT1
Test: MIC conferred by ampC gene LAT1 cloned into common vector
Assay type: cell-based
Details: not given
Excerpt: as §1

Row | SMILES | Minimum Inhibitory Concentration (MIC)
18 | CC(C)(O/N=C(\C(=O)N[C@@H]1C(=O)N2C(C(=O)[O-])=C(C[n+]3ccccc3)CS[C@H]12)c1csc(N)n1)C(=O)O [Ceftazidime] | 256
19 | CC1(C)S[C@@H]2[C@H](NC(=O)[C@H](N)c3ccccc3)C(=O)N2[C@H]1C(=O)O [Ampicillin] | 1024
20 | CO/N=C(\C(=O)N[C@@H]1C(=O)N2C(C(=O)O)=C(COC(C)=O)CS[C@H]12)c1csc(N)n1 [Cefotaxime] | 64

System: E. coli K12 ampC
Test: not given
Details: gene cloned into a plasmid, effective promoter; cited from earlier work

Row | SMILES | clinical resistance conferred
21 | CC1(C)S[C@@H]2[C@H](NC(=O)[C@H](N)c3ccccc3)C(=O)N2[C@H]1C(=O)O [Ampicillin] | confers clinical resistance

System: host expressing Citrobacter freundii ampC gene Cfre6879
Test: MIC conferred by ampC gene Cfre6879 cloned into common vector
Assay type: cell-based
Details: Cfre 6879, gene from organism isolated in the 1920's
Excerpt: as §1

Row | SMILES | Minimum Inhibitory Concentration (MIC)
22 | CC(C)(O/N=C(\C(=O)N[C@@H]1C(=O)N2C(C(=O)[O-])=C(C[n+]3ccccc3)CS[C@H]12)c1csc(N)n1)C(=O)O [Ceftazidime] | 512
23 | CC1(C)S[C@@H]2[C@H](NC(=O)[C@H](N)c3ccccc3)C(=O)N2[C@H]1C(=O)O [Ampicillin] | 1024
24 | CO/N=C(\C(=O)N[C@@H]1C(=O)N2C(C(=O)O)=C(COC(C)=O)CS[C@H]12)c1csc(N)n1 [Cefotaxime] | 128

System: host expressing Citrobacter freundii ampC gene LAT4
Test: MIC conferred by ampC gene LAT4 cloned into common vector
Assay type: cell-based
Details: not given
Excerpt: as §1

Row | SMILES | Minimum Inhibitory Concentration (MIC)
25 | CC(C)(O/N=C(\C(=O)N[C@@H]1C(=O)N2C(C(=O)[O-])=C(C[n+]3ccccc3)CS[C@H]12)c1csc(N)n1)C(=O)O [Ceftazidime] | 256
26 | CC1(C)S[C@@H]2[C@H](NC(=O)[C@H](N)c3ccccc3)C(=O)N2[C@H]1C(=O)O [Ampicillin] | 1024
27 | CO/N=C(\C(=O)N[C@@H]1C(=O)N2C(C(=O)O)=C(COC(C)=O)CS[C@H]12)c1csc(N)n1 [Cefotaxime] | 256

System: plasmid-borne ampC genes CMY-2, CMY-3b, LAT-1, LAT-2, LAT-3, and LAT-4
Test: Clinical resistance conferred by plasmid-borne ampC genes as a group
Assay type: cell-based, Citrobacter freundii
Details: all of CMY-2, CMY-3b, LAT-1, LAT-2, LAT-3, LAT-4
Excerpt: (§2) The plasmid-borne ampC genes shown in Table 1 (below) have been cloned into a common vector to ensure that all genes are expressed at the same level.

Row | SMILES | clinical resistance conferred
28 | CC(C)(O/N=C(\C(=O)N[C@@H]1C(=O)N2C(C(=O)[O-])=C(C[n+]3ccccc3)CS[C@H]12)c1csc(N)n1)C(=O)O [Ceftazidime] | confer clinical resistance
29 | CC1(C)S[C@@H]2[C@H](NC(=O)[C@H](N)c3ccccc3)C(=O)N2[C@H]1C(=O)O [Ampicillin] | confer clinical resistance
30 | CO/N=C(\C(=O)N[C@@H]1C(=O)N2C(C(=O)O)=C(COC(C)=O)CS[C@H]12)c1csc(N)n1 [Cefotaxime] | confer clinical resistance

System: No Plasmid host
Test: MIC, host with no plasmid (Table 1)
Assay type: cell-based
Details: not given
Excerpt: as §2

Row | SMILES | Minimum Inhibitory Concentration (MIC)
31 | CC(C)(O/N=C(\C(=O)N[C@@H]1C(=O)N2C(C(=O)[O-])=C(C[n+]3ccccc3)CS[C@H]12)c1csc(N)n1)C(=O)O [Ceftazidime] | 0.25
32 | CC1(C)S[C@@H]2[C@H](NC(=O)[C@H](N)c3ccccc3)C(=O)N2[C@H]1C(=O)O [Ampicillin] | 2

System: host expressing Citrobacter freundii ampC gene LAT2
Test: MIC conferred by ampC gene LAT2 cloned into common vector
Assay type: cell-based
Details: not given
Excerpt: as §1

Row | SMILES | Minimum Inhibitory Concentration (MIC)
33 | CC(C)(O/N=C(\C(=O)N[C@@H]1C(=O)N2C(C(=O)[O-])=C(C[n+]3ccccc3)CS[C@H]12)c1csc(N)n1)C(=O)O [Ceftazidime] | 256
34 | CC1(C)S[C@@H]2[C@H](NC(=O)[C@H](N)c3ccccc3)C(=O)N2[C@H]1C(=O)O [Ampicillin] | 2048
35 | CO/N=C(\C(=O)N[C@@H]1C(=O)N2C(C(=O)O)=C(COC(C)=O)CS[C@H]12)c1csc(N)n1 [Cefotaxime] | 64
